Experimental findings from patent US20240383905A1, “FGFR INHIBITORS AND METHODS OF USE THEREOF” (3H PHARMACEUTICALS CO., LTD., priority 2021, published 2024) are described below.

Assay [1] deals with T1, FGFR1 (Homo sapiens, UniProt P11362).
T1 construct: purchased Carna 08-133
Description: FGFR1 Biochemical Caliper Assay (KinEASE-TK kit). Conditions: ratio FGFR1/FGFR2 of the biochemical assay. The procedure, abridged: (§1)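 KinEASE-TK HTRF readout: enzyme at 0.2 nM (FGFR1, FGFR3) preincubated 10 min at RT with 10-point 3-fold compound dilutions before TK-substrate/ATP start.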

For assay [2], the target named is T2, FGFR3 (Homo sapiens, UniProt P22607).
T2 construct: purchased Carna 08-135
T2 sequence (P22607 23-806): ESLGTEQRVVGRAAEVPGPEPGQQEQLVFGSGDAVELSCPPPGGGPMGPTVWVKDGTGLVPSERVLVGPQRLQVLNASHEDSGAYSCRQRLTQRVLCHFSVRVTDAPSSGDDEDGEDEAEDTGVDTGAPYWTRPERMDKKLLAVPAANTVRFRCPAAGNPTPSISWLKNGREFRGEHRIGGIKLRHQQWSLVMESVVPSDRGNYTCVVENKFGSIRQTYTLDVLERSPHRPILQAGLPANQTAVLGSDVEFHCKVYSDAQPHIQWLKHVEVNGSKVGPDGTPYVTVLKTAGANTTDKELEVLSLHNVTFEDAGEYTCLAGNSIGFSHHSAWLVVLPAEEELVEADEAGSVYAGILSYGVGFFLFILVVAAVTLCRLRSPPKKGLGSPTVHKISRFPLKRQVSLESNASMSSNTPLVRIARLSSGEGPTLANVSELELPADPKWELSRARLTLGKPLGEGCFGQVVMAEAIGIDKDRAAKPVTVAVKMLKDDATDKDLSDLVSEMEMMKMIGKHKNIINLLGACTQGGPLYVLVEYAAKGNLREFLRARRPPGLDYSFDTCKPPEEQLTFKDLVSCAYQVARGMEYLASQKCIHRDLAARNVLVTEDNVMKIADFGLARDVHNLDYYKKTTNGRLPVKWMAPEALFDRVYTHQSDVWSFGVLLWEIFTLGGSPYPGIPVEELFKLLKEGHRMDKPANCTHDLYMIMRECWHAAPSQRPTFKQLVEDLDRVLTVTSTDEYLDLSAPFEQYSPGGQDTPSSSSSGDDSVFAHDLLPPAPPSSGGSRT
The assay can be described thus: FGFR3 Biochemical Caliper Assay (KinEASE-TK kit). Conditions: ratio FGFR3/FGFR2 of the biochemical assay. The procedure, abridged: as §1

Assay [3] has as its target T3, FGFR2 (Homo sapiens, UniProt P21802).
T3 construct: purchased Carna 08-134
Description: FGFR2 Biochemical Caliper Assay (KinEASE-TK kit). Conditions: 0.07 nM FGFR2; compound incubated with protein 10 min, reaction 45 min at RT; read-out: FGFR2 Cliper IC50.

In assay [4] the test system is SNU16 cells. Description: SNU16 Cancer Cell Line Proliferation Assay (CellTiter-Glo). The format is cell-based. Conditions: Homo sapiens, SNU-16, 72 h. An outline of the steps: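 Luminescent ATP read-out after 72 h at 37 °C gave IC50 values; compounds tested as 9 three-fold serial dilutions on 5000 SNU16 cells per well, with DMSO as control.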
Background: ATP-based viability assays read luminescence as a measure of living cells.

One may read the IC50 as the concentration needed to halve the response being measured.

Some results are limits rather than exact numbers.

T1 sequence (P11362 22-822): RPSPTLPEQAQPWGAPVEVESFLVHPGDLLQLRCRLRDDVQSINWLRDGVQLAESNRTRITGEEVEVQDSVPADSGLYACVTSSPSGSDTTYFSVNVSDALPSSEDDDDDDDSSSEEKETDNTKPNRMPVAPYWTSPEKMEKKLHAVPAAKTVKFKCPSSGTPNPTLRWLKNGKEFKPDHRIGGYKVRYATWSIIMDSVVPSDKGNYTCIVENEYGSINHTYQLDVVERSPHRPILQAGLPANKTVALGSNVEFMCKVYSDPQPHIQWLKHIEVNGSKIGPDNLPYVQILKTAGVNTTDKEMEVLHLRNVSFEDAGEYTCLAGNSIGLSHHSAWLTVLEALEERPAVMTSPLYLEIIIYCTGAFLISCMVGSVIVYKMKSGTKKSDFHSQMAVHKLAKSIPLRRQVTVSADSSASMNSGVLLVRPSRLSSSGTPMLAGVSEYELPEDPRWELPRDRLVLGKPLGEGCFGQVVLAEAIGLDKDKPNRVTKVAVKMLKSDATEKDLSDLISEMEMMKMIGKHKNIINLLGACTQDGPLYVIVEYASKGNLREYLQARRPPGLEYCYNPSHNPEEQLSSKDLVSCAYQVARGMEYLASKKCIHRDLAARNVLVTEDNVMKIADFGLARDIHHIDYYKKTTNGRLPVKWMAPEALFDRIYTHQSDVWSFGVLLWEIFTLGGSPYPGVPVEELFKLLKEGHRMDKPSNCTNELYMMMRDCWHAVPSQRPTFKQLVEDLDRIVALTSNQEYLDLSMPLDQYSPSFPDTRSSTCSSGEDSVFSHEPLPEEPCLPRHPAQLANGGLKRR
T3 sequence (P21802 22-821): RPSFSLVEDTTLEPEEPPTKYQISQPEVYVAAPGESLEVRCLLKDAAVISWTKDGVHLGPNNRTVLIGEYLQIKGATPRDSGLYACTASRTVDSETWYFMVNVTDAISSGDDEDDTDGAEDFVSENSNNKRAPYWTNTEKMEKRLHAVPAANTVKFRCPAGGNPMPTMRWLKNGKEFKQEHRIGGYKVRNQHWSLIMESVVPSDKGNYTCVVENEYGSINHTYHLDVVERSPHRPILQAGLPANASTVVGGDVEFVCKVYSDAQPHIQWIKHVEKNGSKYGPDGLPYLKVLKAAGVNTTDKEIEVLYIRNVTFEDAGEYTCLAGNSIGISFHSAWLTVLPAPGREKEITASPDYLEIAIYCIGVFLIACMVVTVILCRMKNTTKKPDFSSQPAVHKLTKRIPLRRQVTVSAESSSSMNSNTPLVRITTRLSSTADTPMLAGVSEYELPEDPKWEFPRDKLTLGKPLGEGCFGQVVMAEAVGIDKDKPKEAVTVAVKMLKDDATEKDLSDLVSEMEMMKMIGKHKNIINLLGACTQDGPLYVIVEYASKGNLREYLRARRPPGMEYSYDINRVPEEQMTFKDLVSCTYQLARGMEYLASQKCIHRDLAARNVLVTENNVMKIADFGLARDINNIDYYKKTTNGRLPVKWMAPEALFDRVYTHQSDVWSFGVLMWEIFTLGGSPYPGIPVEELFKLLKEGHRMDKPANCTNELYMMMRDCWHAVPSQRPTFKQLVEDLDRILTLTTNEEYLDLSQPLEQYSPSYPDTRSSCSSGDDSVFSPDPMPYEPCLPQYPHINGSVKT

As to `C=C(F)C(=O)Nc1ccc(-c2nn3ncnc(N)c3c2-c2ccc(C(=O)NCC3(C(F)(F)F)CC3)c(OC)c2)c(F)c1` [Compound 361], the “Selectivity FGFR1/FGFR2” value in assay [1] is listed as “A (Selectivity of FGFR1/FGFR2 less than 500 but greater than or equal to 300)”. For the same molecule, in assay [2], the “Selectivity FGFR3/FGFR2” value was “A (Selectivity of FGFR3/FGFR2 less than 150 but greater than or equal to 100)”. The IC50 in assay [3] was under 5 nM; in assay [4], at most 10 nM.

Turning to `C=CC(=O)Nc1ccc(-c2nn3ncnc(N)c3c2-c2ccc(Oc3cccc(C)n3)c(F)c2)cc1` [Compound 366], in assay [1], the “Selectivity FGFR1/FGFR2” value is on record as “A+ (Selectivity of FGFR1/FGFR2 greater or equal to 500)”. The “Selectivity FGFR3/FGFR2” value in assay [2] is listed as “A+ (Selectivity of FGFR3/FGFR2 greater or equal to 150)”. The IC50 in assay [3] was under 5 nM; in assay [4], at most 10 nM.

In the case of `[2H]C([2H])([2H])Oc1cc(-c2c(-c3ccc(NC(=O)C(=C)F)cc3)nn3ncnc(N)c23)ccc1C(=O)NCC1(F)CC1` [Compound 372, 4-(4-amino-6-(4-(2-fluoroacrylamido)phe-nyl)pyrazolo[5,1-f][1,2,4]triazin-5-yl)-N-((1-fluorocyclo-propyl)methyl)-2-(methoxy-d3)benzamide], the “Selectivity FGFR1/FGFR2” value in assay [1] is recorded as “A+ (Selectivity of FGFR1/FGFR2 greater or equal to 500)”. Moreover, in assay [2], the “Selectivity FGFR3/FGFR2” value was “A+ (Selectivity of FGFR3/FGFR2 greater or equal to 150)”. In addition, the IC50 in assay [3] was under 5 nM; in assay [4], at most 10 nM.

As to `CC#CC(=O)Nc1ccc(-c2nn3ncnc(N)c3c2-c2ccc(C(=O)NC3(C(F)(F)F)CC3)c(OC)c2)cc1` [Compound 395], the “Selectivity FGFR1/FGFR2” value in assay [1] is “A+ (Selectivity of FGFR1/FGFR2 greater or equal to 500)”. In addition, in assay [2], the “Selectivity FGFR3/FGFR2” value is recorded as “B (Selectivity of FGFR3/FGFR2 less than 100 but greater than or equal to 25)”. Moreover, the IC50 in assay [3] was over 10 nM; in assay [4], at most 10 nM.

With `C=CC(=O)Nc1ccc(-c2nn3ncnc(N)c3c2-c2ccc(Oc3nccc(CC)n3)c(F)c2)cc1` [Compound 400, N-(4-(4-amino-5-(4-((4-ethylpyrimidin-2-yl)oxy)-3-fluorophenyl)pyrazolo[5,1-f][1,2,4]triazin-6-yl)phenyl)acrylamide], the “Selectivity FGFR1/FGFR2” value in assay [1] was “A+ (Selectivity of FGFR1/FGFR2 greater or equal to 500)”. Also, in assay [2], the “Selectivity FGFR3/FGFR2” value is given as “A+ (Selectivity of FGFR3/FGFR2 greater or equal to 150)”. Besides, the IC50 in assay [3] was under 5 nM; in assay [4] it was at most 10 nM.

Regarding `C=CC(=O)Nc1ccc(-c2nn3ncnc(N)c3c2-c2ccc(Oc3ccn(C)n3)c(F)c2)cc1` [Compound 402, N-(4-(4-amino-5-(3-fluoro-4-((1-methyl-1H-pyrazol-3-yl)oxy)phenyl)pyrazolo [5,1-f][1,2,4]triazin-6-yl)phenyl)acrylamide], the “Selectivity FGFR1/FGFR2” value in assay [1] is on record as “A+ (Selectivity of FGFR1/FGFR2 greater or equal to 500)”. Besides, the “Selectivity FGFR3/FGFR2” value in assay [2] is listed as “A+ (Selectivity of FGFR3/FGFR2 greater or equal to 150)”. Besides, the IC50 was over 10 nM in assay [3] and at most 10 nM in assay [4].

In the case of `C#CC(=O)Nc1ccc(-c2nn3ncnc(N)c3c2-c2ccc(Oc3cccc(C)n3)c(F)c2)cc1` [Compound 410], the “Selectivity FGFR1/FGFR2” value in assay [1] is “A (Selectivity of FGFR1/FGFR2 less than 500 but greater than or equal to 300)”. In addition, in assay [2], the “Selectivity FGFR3/FGFR2” value was “A (Selectivity of FGFR3/FGFR2 less than 150 but greater than or equal to 100)”. Moreover, the IC50 in assay [3] was under 5 nM; in assay [4] it was over 50 nM.

Consider `C=C(F)C(=O)Nc1ccc(-c2nn3ncnc(N)c3c2-c2ccc(C(=O)NC3(C(F)(F)F)CC3)c(OC)c2)c(OC)c1` [Compound 415], for which the “Selectivity FGFR1/FGFR2” value in assay [1] was “B (Selectivity of FGFR1/FGFR2 less than 300 but greater than or equal to 200)”. In addition, the “Selectivity FGFR3/FGFR2” value in assay [2] is listed as “B (Selectivity of FGFR3/FGFR2 less than 100 but greater than or equal to 25)”. Further, the IC50 in assay [3] was under 5 nM; in assay [4], at most 10 nM.

Turning to `C=C(F)C(=O)Nc1ccc(-c2nn3ncnc(N)c3c2-c2ccc(C(=O)NC34CC(F)(C3)C4)c(OC)c2)c(OC)c1` [Compound 416, 4-(4-amino-6-(4-(2-fluoroacrylamido)-2-methoxyphenyl)pyrazolo[5,1-f][1,2,4]triazin-5-yl)-N-(3-fluorobicyclo[1.1.1]pentan-1-yl)-2-methoxybenzamide], in assay [1], the “Selectivity FGFR1/FGFR2” value is on record as “B (Selectivity of FGFR1/FGFR2 less than 300 but greater than or equal to 200)”. Also, in assay [2], the “Selectivity FGFR3/FGFR2” value is given as “B (Selectivity of FGFR3/FGFR2 less than 100 but greater than or equal to 25)”. The values for the IC50 in assay [3] and in assay [4] were under 5 nM and at most 10 nM, respectively.

For the molecule `C=C(F)C(=O)Nc1ccc(-c2nn3ncnc(N)c3c2-c2ccc(C(=O)NC34CC(C3)C4)c(OC)c2)c(OC)c1` [Compound 426, 4-(4-amino-6-(4-(2-fluoroacrylamido)-2-methoxyphenyl)pyrazolo[5,1-f][1,2,4]triazin-5-yl)-N-(bicyclo[1.1.1]pentan-1-yl)-2-methoxybenzamide], the “Selectivity FGFR1/FGFR2” value in assay [1] was “A+ (Selectivity of FGFR1/FGFR2 greater or equal to 500)”. The “Selectivity FGFR3/FGFR2” value in assay [2] is “A (Selectivity of FGFR3/FGFR2 less than 150 but greater than or equal to 100)”. The IC50 is under 5 nM in assay [3] and at most 10 nM in assay [4].

`C=C(F)C(=O)Nc1ccc(-c2nn3ncnc(N)c3c2-c2ccc(C(=O)NC34CC(F)(C3)C4)c(OC)c2)c(F)c1` [Compound 427, 4-(4-amino-6-(2-fluoro-4-(2-fluoroacryl-amido)phenyl)pyrazolo[5,1-f][1,2,4]triazin-5-yl)-N-(3-fluorobicyclo [1.1.1]pentan-1-yl)-2-methoxybenzamide]: in assay [1], the “Selectivity FGFR1/FGFR2” value is on record as “A+ (Selectivity of FGFR1/FGFR2 greater or equal to 500)”. The “Selectivity FGFR3/FGFR2” value in assay [2] was “A (Selectivity of FGFR3/FGFR2 less than 150 but greater than or equal to 100)”. The IC50 in assay [3] is under 5 nM; in assay [4], at most 10 nM.

As to `C=CC(=O)Nc1ccc(-c2nn3ncnc(N)c3c2-c2ccc(Oc3nccc(N)n3)c(F)c2)cc1` [Compound 428], the “Selectivity FGFR1/FGFR2” value in assay [1] is given as “A+ (Selectivity of FGFR1/FGFR2 greater or equal to 500)”. For the same molecule, the “Selectivity FGFR3/FGFR2” value in assay [2] was “A+ (Selectivity of FGFR3/FGFR2 greater or equal to 150)”. Also, the IC50 in assay [3] is over 10 nM; in assay [4], 10 to 50 nM.

In the case of `C=C(C)C(=O)Nc1ccc(-c2nn3ncnc(N)c3c2-c2ccc(C(=O)NC3(C(F)(F)F)CC3)c(OC)c2)c(F)c1` [Compound 429], the “Selectivity FGFR1/FGFR2” value in assay [1] is recorded as “A+ (Selectivity of FGFR1/FGFR2 greater or equal to 500)”. The “Selectivity FGFR3/FGFR2” value in assay [2] is “A+ (Selectivity of FGFR3/FGFR2 greater or equal to 150)”. Also, the IC50 in assay [3] is 5 to 10 nM; in assay [4], at most 10 nM.

On to `C=CC(=O)Nc1ccc(-c2nn3ncnc(N)c3c2-c2ccc(C(=O)C3CCCCC3)c(OC)c2)cc1` [Compound 431, N-(4-(4-amino-5-(4-(cyclohexanecarbonyl)-3-methoxyphenyl)pyrazolo[5,1-f][1,2,4]triazin-6-yl)phenyl) acrylamide], for which the “Selectivity FGFR1/FGFR2” value in assay [1] is given as “A+ (Selectivity of FGFR1/FGFR2 greater or equal to 500)”. Further, the “Selectivity FGFR3/FGFR2” value in assay [2] is reported as “A+ (Selectivity of FGFR3/FGFR2 greater or equal to 150)”. Further, the IC50 in assay [3] is over 10 nM; in assay [4] it was at most 10 nM.

`C=C(F)C(=O)Nc1ccc(-c2nn3ncnc(N)c3c2-c2ccc(C(=O)NC3(C(F)(F)F)CC3)c(OC)c2)c(C(F)(F)F)c1` [Compound 432]: the “Selectivity FGFR1/FGFR2” value in assay [1] is given as “B (Selectivity of FGFR1/FGFR2 less than 300 but greater than or equal to 200)”. The “Selectivity FGFR3/FGFR2” value in assay [2] is reported as “B (Selectivity of FGFR3/FGFR2 less than 100 but greater than or equal to 25)”. Also, the figures for the IC50 in assay [3] and in assay [4] were under 5 nM and at most 10 nM, respectively.

With `C=CC(=O)Nc1ccc(-c2nn3ncnc(N)c3c2-c2ccc(Oc3nccc(NC)n3)c(F)c2)cc1` [Compound 433, N-(4-(4-amino-5-(3-fluoro-4-((4-(methylamino)pyrimidin-2-yl)oxy)phenyl)pyrazolo[5,1-f][1,2,4]triazin-6-yl)phenyl) acrylamide], the “Selectivity FGFR1/FGFR2” value in assay [1] is listed as “A+ (Selectivity of FGFR1/FGFR2 greater or equal to 500)”. Besides, the “Selectivity FGFR3/FGFR2” value in assay [2] was “A+ (Selectivity of FGFR3/FGFR2 greater or equal to 150)”. In addition, the IC50 in assay [3] was 5 to 10 nM; in assay [4], at most 10 nM.

For the molecule `C=C(F)C(=O)Nc1ccc(-c2nn3ncnc(N)c3c2-c2ccc(Oc3cccc(C)n3)c(F)c2)c(F)c1` [Compound 438, N-(4-(4-amino-5-(3-fluoro-4-((6-methylpyridin-2-yl)oxy)phenyl)pyrazolo [5,1-f][1,2,4]triazin-6-yl)-3-fluorophenyl)-2-fluoroacrylamide], the “Selectivity FGFR1/FGFR2” value in assay [1] is “A+ (Selectivity of FGFR1/FGFR2 greater or equal to 500)”. Besides, the “Selectivity FGFR3/FGFR2” value in assay [2] is “A+ (Selectivity of FGFR3/FGFR2 greater or equal to 150)”. The IC50 is under 5 nM in assay [3] and at most 10 nM in assay [4].

With `C=C(F)C(=O)Nc1ccc(-c2nn3ncnc(N)c3c2-c2ccc(Oc3cccc(C)n3)c(F)c2)c(C)c1` [Compound 439, N-(4-(4-amino-5-(3-fluoro-4-((6-methylpyridin-2-yl)oxy)phenyl)pyrazolo [5,1-f][1,2,4]triazin-6-yl)-3-methylphenyl)-2-fluoroacrylamide], in assay [1], the “Selectivity FGFR1/FGFR2” value is “C (Selectivity of FGFR1/FGFR2 less than 200 but greater than or equal to 100)”. In assay [2], the “Selectivity FGFR3/FGFR2” value was “B (Selectivity of FGFR3/FGFR2 less than 100 but greater than or equal to 25)”. For the same molecule, the IC50 in assay [3] is under 5 nM; in assay [4], at most 10 nM.
